From US9730445B2, “Herbicidal compositions comprising 4-amino-3-chloro-5-fluoro-6-(4-chloro-2-fluoro-3-methoxyphenyl) pyridine-2-carboxylic acid or a derivative thereof and fungicides” (DOW AGROSCIENCES LLC, priority 2013, dated 2017) come the findings set out here.

Holding throughout (experiment): Postemergence foliar-applied weed control, direct-seeded rice (greenhouse)
For one test, the system named is ECHCG. Type of test: in vivo, Echinochloa crus-galli (L.) P. Beauv. (barnyardgrass).
In the next test the test system is CYPES. The test is classed as in vivo, Cyperus esculentus L. (yellow nutsedge). The method, then:
Seeds or nutlets of the desired test plant species were planted in a soil matrix prepared by mixing aloam or sandy loam soil (e.g., 28.6 percent silt, 18.8 percent clay, and 52.6 percent sand, with a pH of about 5.8 and an organic matter content of about 1.8 percent) and calcareous grit in an 80 to 20 ratio. The soil matrix was contained in plastic pots with a volume of 1 quart and a surface area of 83.6 square centimeters (cm^2). […] The plants were grown for 8-22 days in a greenhouse with an approximate 14 hour (h) photoperiod which was maintained at about 29° C. during the day and 26° C. during the night. Nutrients (Peters Excel® 15-5-15 5-Ca 2-Mg and iron chelate) were applied in the irrigation solution as needed and water was added on a regular basis. Supplemental lighting was provided with overhead metal halide 1000-Watt lamps as necessary. The plants were employed for testing when they reached the first through fourth true leaf stage.
(§1) Treatments consisted of the acid or esters of 4-amino-3-chloro-5-fluoro-6-(4-chloro-2-fluoro-3-methoxy-phenyl)pyridine-2-carboxylic acid (Compound A), each formulated as an SC (suspension concentrate), and various fungicidal components alone and in combination. Forms of compound A were applied on an acid equivalent basis.
(§2) For treatments comprised of formulated compounds, measured amounts of compounds were placed individually in 25 mL glass vials and diluted in a volume of 1.25% volume per volume (v/v) Agri-Dex® crop oil concentrate to obtain 12× stock solutions. […] Application solutions were prepared by adding an appropriate amount of each stock solution (e.g., 1 mL) and diluted to the appropriate final concentrations with the addition of […] of an aqueous mixture of 1.25% (v/v) crop oil concentrate so that the final spray solutions contained 1.25+/−0.05% (v/v) crop oil concentrate.
(§3) For treatments comprised of technical compounds, weighed amounts can be placed individually in 25 mL glass vials and dissolved in a volume of 97:3 volume per volume (v/v) acetone/dimethyl sulfoxide (DMSO) to obtain 12× stock solutions. […] When technical materials are used, the concentrated stock solutions can be added to the spray solutions so that the final acetone and DMSO concentrations of the application solutions are 16.2% and 0.5%, respectively.
(§4) As required, additional water and/or 97:3 v/v acetone/DMSO was added to individual application solutions so that the final acetone and DMSO concentrations of the application solutions being compared were 8.1% and 0.25%, respectively
(§5) All stock solutions and applications solutions were visually inspected for compound compatibility prior to application. Spray solutions were applied to the plant material with an overhead Mandel track sprayer equipped with 8002E nozzles calibrated to deliver 187 L/ha over an application area of 0.503 square meters (m^2) at a spray height of 18 to 20 inches (46 to 50 cm) above average plant canopy height. Control plants were sprayed in the same manner with the solvent blank.
(§6) The treated plants and control plants were placed in a greenhouse as described above and watered by sub-irrigation to prevent wash-off of the test compounds. After approximately 3 weeks, the condition of the test plants as compared with that of the untreated plants was determined visually and scored on a scale of 0 to 100 percent where 0 corresponds to no injury or growth inhibition and 100 corresponds to complete kill. […]

In a further test the test system is IPOHE. The test is classed as in vivo, Ipomoea hederacea (L.) Jacq. (ivyleaf morningglory). The settings on record: r10-12 ester 4.38/8.75/17.5 g ae/ha alone, r13 difenoconazole 200 g ai/ha alone, r14-16 ester 4.38/8.75/17.5 + 200.
A further test deals with BRAPP. The test is classed as in vivo.
Excerpt: Seeds or nutlets of the desired test plant species were planted in a soil matrix prepared by mixing aloam or sandy loam soil (e.g., 28.6 percent silt, 18.8 percent clay, and 52.6 percent sand, with a pH of about 5.8 and an organic matter content of about 1.8 percent) and calcareous grit in an 80 to 20 ratio. The soil matrix was contained in plastic pots with a volume of 1 quart and a surface area of 83.6 square centimeters (cm^2). When required to ensure good germination and healthy plants, a fungicide treatment and/or other chemical or physical treatment was applied. The plants were grown for 8-22 days in a greenhouse with an approximate 14 hour (h) photoperiod which was maintained at about 29° C. during the day and 26° C. during the night. Nutrients (Peters Excel® 15-5-15 5-Ca 2-Mg and iron chelate) were applied in the irrigation solution as needed and water was added on a regular basis. Supplemental lighting was provided with overhead metal halide 1000-Watt lamps as necessary. The plants were employed for testing when they reached the first through fourth true leaf stage.
as §1
Treatment requirements were calculated based upon the rates being tested, the concentration of active ingredient or acid equivalent in the formulation and a 12 milliliter (mL) application volume at a rate of 187 liters per hectare (L/ha).
as §2, §3, §4, §5, §6

The mark [1] stands for this setting: r38-39 ester 8/16 g ae/ha alone, r40 isotianil 380 g ai/ha alone, r41-42 ester 8/16 + 380.

Several values for one entry are separate records, joined by “and”; a condition that tells them apart may be missing. Equal entries are not always repeated.

As to `COc1c(Cl)ccc(-c2nc(C(=O)OCc3ccccc3)c(Cl)c(N)c2F)c1F` [Compound A Benzyl Ester], the “Visual Weed Control (%)—21 DAA ECHCG Obs” value was 85% and 90% and 45% in the test with ECHCG (r9-11 ester 8/16/32 g ae/ha alone, r12-14 hexaconazole 25/50/100 g ai/ha alone, r15-23 ester 8/16/32 at each of 25, 50, 100); 45% and 85% in the test with ECHCG (setting [1]). The “Visual Weed Control (%) - 21 DAA ECHCG Obs” value in the test on ECHCG (r58-60 ester 8/16/32 g ae/ha alone, r61-63 difenoconazole 50/100/200 g ai/ha alone, r64-72 ester 8/16/32 at each of 50, 100, 200) was 70% and 60% and 90%. In addition, the “Visual Weed Control (%) - 21 DAA CYPES Obs” value in the test with CYPES (r26 ester 8 g ae/ha alone, r27-29 phthalide 100/200/300 g ai/ha alone, r30-32 ester 8 + 100/200/300) was determined as 10%. Also, the “Visual Weed Control (%)—21 DAA CYPES Obs” value with CYPES (r45 ester 8 g ae/ha alone, r46-48 kasugamycin 17.5/35/70 g ai/ha alone, r49-51 ester 8 + 17.5/35/70) is listed as 70%. Further, the “Visual Weed Control (%) - 21 DAA IPOHE Obs” value in the test with IPOHE was 10% and 20%. In addition, the “Visual Weed Control (%)—20 DAA BRAPP Obs” value with BRAPP (20 DAA, r9-11 ester 8/16/32 g ae/ha alone, r12 isotianil 200 g ai/ha alone, r13-15 ester 8/16/32 + 200) was 85% and 90% and 60%. Further, the “Visual Weed Control (%)—21 DAA BRAPP Obs” value with BRAPP (r29-30 ester 8/16 g ae/ha alone, r31-33 hexaconazole 25/50/100 g ai/ha alone, r34-39 ester 8/16 at each of 25, 50, 100) is 55% and 60%; in the test with BRAPP (setting [1]), 55% and 60%.
